One data set relates to murine Factor 7 mRNA. The experiment in a line: Liver Factor 7 mRNA by real-time RT-PCR in treated BALB/c mice. The format is in vivo, mouse. The method, then: A control group of mice was injected subcutaneously with PBS twice a week for 3 weeks. After the treatment period, whole liver was collected for RNA and protein analysis, and plasma was collected for clotting analysis (PT/aPTT).
(§1) RNA was extracted from liver tissue for real-time RT-PCR analysis of Factor 7.
A control group of 3 mice was injected with a single dose of PBS, and mice in this group were sacrificed on day 1. Mice in all groups were sacrificed by cervical dislocation following anesthesia with 150 mg/kg ketamine mixed with 10 mg/kg xylazine administered by intraperitoneal injection. Liver was harvested for RNA analysis and plasma was collected for clotting analysis (PT and aPTT).
as §1
Mice from the first group were sacrificed on days 1 and 3 after the single dose. […] A control group of 3 mice was injected with PBS in a single dose. Mice from the control group were sacrificed 1 day later. Mice in all groups were sacrificed by cervical dislocation following anesthesia with 150 mg/kg ketamine mixed with 10 mg/kg xylazine administered by intraperitoneal injection. Liver was harvested for RNA analysis and plasma was collected for clotting analysis (PT and aPTT) for mice in all groups.
RNA was extracted from liver tissue for quantitative RT-PCR analysis of Factor 7.
(§2) Two control groups of BALB/c mice were treated with PBS, administered subcutaneously twice a week for 3 weeks. Thrombus formation was induced with FeCl3 in half of the mice while the rest of the mice were assayed for tail bleeding. […] Thrombus formation was induced with FeCl3 in all groups of the VT mice except the first control group.
as §1
A fifth group of BALB/c mice was treated with 3 mg/kg of warfarin, administered intraperioneally daily for 6 days. Four hours after the last dose of warfarin, mice were sacrificed. A control group of BALB/c mice were treated with PBS, administered subcutaneously twice a week for 3 weeks. Two days after the last dose of PBS, mice were anesthetized with 150 mg/kg ketamine mixed with 10 mg/kg xylazine administered by intraperitoneal injection. Thrombus formation was induced with FeCl3 in groups of mice except the first control group.

The next data set concerns platelet factor-4 (PF-4). The data set is described as follows: FeCl3 induced venous thrombosis (VT) model, real-time RT-PCR quantification of PF-4 in vena cava as measure of thrombus formation. The conditions noted are these: for PF-4 (percentage compared to PBS controls): vena cava, BALB/c mice. In kind it is in vivo, mouse. The method, then: as §2
In mice undergoing FeCl3 treatment, thrombus formation was induced by applying a piece of filter paper ([…]) pre-saturated with 10% FeCl3 solution directly on the vena cava. After 3 minutes of exposure, the filter paper was removed. Thirty minutes after the filter paper application, a fixed length of the vein containing the thrombus was dissected out for platelet analysis. Liver was collected for RNA analysis.
(§3) Real-time RT-PCR quantification of platelet factor-4 (PF-4) was used to quantify platelets in the vena cava as a measure of thrombus formation.
Six additional groups of BALB/c mice was treated with 0.5 mg/kg, 1 mg/kg, 2 mg·kg, 3 mg/kg, 4 mg/kg, or 5 mg/kg of warfarin, administered intraperioneally daily for 6 days. Four hours after the last dose of warfarin, mice were sacrificed. A control group of BALB/c mice were treated with PBS, administered subcutaneously twice a week for 3 weeks. Two days after the last dose of PBS, mice were anesthetized with 150 mg/kg ketamine mixed with 10 mg/kg xylazine administered by intraperitoneal injection. Thrombus formation was induced with FeCl3 in groups of mice except the first control group.
In mice undergoing FeCl3 treatment, thrombus formation was induced by applying a piece of filter paper (2×4 mm) pre-saturated with 10% FeCl3 solution directly on the vena cava. After 3 minutes of exposure, the filter paper was removed. Thirty minutes after the filter paper application, a fixed length of the vein containing the thrombus was dissected out for platelet analysis. Liver was collected for RNA analysis.
as §3
Thrombus formation was induced with FeCl3 in all of the mice except the first […] control groups. All mice were anesthetized with 150 mg/kg of ketamine mixed with 10 mg/kg of xylazine administered by intraperitoneal injection.
After 3 minutes of exposure, the filter paper was removed. Thirty minutes after the filter paper application, a fixed length of the vein containing the thrombus was dissected out for platelet analysis.
Real-time PCR quantification of PF-4 was used to quantify platelets in the vena cava as a measure of thrombus formation. […] Data is presented as percent of PF-4 mRNA as compared to the PBS+ FeCl3 control, […]

The test system of a further data set is BALB/c mice. The experiment in a line: Tail bleeding assay. The conditions noted are these: for Blood: BALB/c mice, blood collected over 40 minutes, PBS 0.06.

Turning to `CC(=O)CC(c1ccccc1)c1c(O)c2ccccc2oc1=O` (stereo not shown) [warfarin, reference compound], the “reduction of Factor 7 mRNA as compared to the PBS control” value with murine Factor 7 mRNA (Example 15, 3 mg/kg intraperitoneally daily for 6 days) is listed as “did not result in significant reduction”. Moreover, the “% inhibition of Factor 7 mRNA” value in the data set on murine Factor 7 mRNA (liver, BALB/c mice, FeCl3 VT model, 3 mg/kg i.p. daily for 6 days, relative to PBS control) worked out at 10%. Also, the “PF-4 in comparison to the PBS control” value with platelet factor-4 (PF-4) (Example 16, dose of 1 mg/kg and higher, intraperitoneally daily for 6 days) is “reduction of PF-4”. Also, the “PF-4 (percentage compared to PBS controls)” value in the data set on platelet factor-4 (PF-4) (FeCl3, 0.5 mg/kg i.p. daily for 6 days) is 165%; in the data set with platelet factor-4 (PF-4) (FeCl3, 1 mg/kg i.p. daily for 6 days), 63%; with platelet factor-4 (PF-4) (FeCl3, 2 mg/kg i.p. daily for 6 days), 47%; in the data set with platelet factor-4 (PF-4) (FeCl3, 3 mg/kg i.p. daily for 6 days), 35%; with platelet factor-4 (PF-4) (FeCl3, 4 mg/kg i.p. daily for 6 days), 22%; in the data set on platelet factor-4 (PF-4) (FeCl3, 5 mg/kg i.p. daily for 6 days), 0%. For the same compound, the “Blood” value in the data set on BALB/c mice (0.5 mg/kg i.p. daily for 6 days) is 0.16 g; with BALB/c mice (1 mg/kg i.p. daily for 6 days), 0.28 g; in the data set on BALB/c mice (2 mg/kg i.p. daily for 6 days) it was 0.58 g; in the data set on BALB/c mice (3 mg/kg i.p. daily for 6 days), 0.78 g; in the data set on BALB/c mice (4 mg/kg i.p. daily for 6 days), 0.66 g; in the data set with BALB/c mice (5 mg/kg i.p. daily for 6 days) it was 0.93 g. Also, in the data set with BALB/c mice (Example 17, 0.5-5 mg/kg intraperitoneally daily for 6 days), the “bleeding as compared to PBS control mice” value is “did increase bleeding”.

The record behind these values is US20120214862A1, “MODULATION OF FACTOR 7 EXPRESSION” (ISIS Pharmaceuticals, Inc., priority 2009, published 2012).
